Where two headings read alike, the source gives them in different places.
Experiments:
in vitro = assay type: cell-based; conditions: cells exposed to zidovudine; 22 assays; 90.9% for cells not exposed; read-out: cell viability
Text: (§1) A total of 22 clinical HIV-1 isolates were studied, including 8 isolates from four seropositive asymptomatic individuals, 6 isolates from three patients with the AIDS-related complex, and 8 isolates from four patients with AIDS (two pairs of zidovudine-resistant and zidovudine-susceptible reference isolates were also included in this group). Erice et al., Antimicrob. Ag. Chemother., 37, 835 (1993). Fifteen isolates were from untreated individuals, and seven isolates were obtained after 24 to 104 weeks of treatment with zidovudine, alone or alternating with zalcitabine. […] The mean αCD4-PAP IC50 s in this group were 11×10^-3 nM (range, 2.5×10^-3 to 25×10^-3 nM) for isolates from zidovudine-untreated individuals and 9×10^-3 nM for the isolate obtained after 48 weeks of zidovudine therapy. […] The mean αCD4-PAP values in this group were 137×10^-3 nM (range, 39×10^-3 to 212×10^-3 nM) for isolates from untreated individuals and 19×10^-3 nM (range, 2×10^-3 to 42×10^-3 nM) for isolates from treated patients. […] The mean αCD4-PAP values were 43×10^-3 nM for the 17 isolates susceptible to zidovudine and 19×10^-3 nM for the 5 isolates that were resistant to zidovudine. All of the HIV-1 isolates studied had IC50 s greater than 0.5 nM for unconjugated PAP, the αCD19-PAP immunoconjugate, and monoclonal antibody αCD4. […]

[1] = test system: clinical HIV-1 strains (AT-101, AT-328, AT-332); assay type: in vivo, Hu-PBL-SCID mice
Text: Hu-PBL-SCID mice were generated by reconstituting SCID mice by intraperitoneal injection of 10×10^6 peripheral blood mononuclear cells from a single EBV-seronegative volunteer donor. Two weeks after inoculation of cells, mice were challenged by intraperitoneal injection of 1.47.-7×10^4 median tissue culture infectious doses (TCID50) of cell free virus. Three different clinical HIV-1 strains (AT-101, AT-328, AT-332) were used. […] SCID mice were infected with HIV-1 isolates in a Biosafety Level 3 containment facility and all manipulations were performed in a biosafety cabinet. Non-toxic doses of anti-CD4-PAP (20% -50% of LD10) were administered intraperitoneally by injecting half of the total dose as a bolus and delivering the remainder i.p. over 2 weeks using Alzet micro-osmotic pumps. […] Two weeks after infection with HIV-1, mice were electively killed and fresh peritoneal lavage cells as well as spleen cells were isolated, cocultured with phytohemagglutinin(PHA)-stimulated human peripheral blood mononuclear cells from an HIV-1 antibody negative donor, and culture supernatants were tested every 3-4 days for a maximum of 28 days for the presence of HIV-1 antigen with a commercially available enzyme immunoassay (Abbott Laboratories, North Chicago, Ill.) that detects primarily the core p24 antigen of HIV-1, as previously described by Goudsmit et al. in J. Infectious Diseases, 155, 558 (1987). In addition to this culture method, we also isolated the DNA from the peritoneal lavage cells as well as splenocytes for detection of HIV-1 DNA by PCR amplification of a 115 b.p. sequence in the gag region of the HIV-1 genome using two 29-base oligonucleotide primers, SK38 and SK39, that flank the region to be amplified. […] DNA samples were also examined for the presence of human DNA by PCR amplification of a 110-bp fragment from the first exon of the human β-globin gene using two 20-base oligonucleotide primers, PCO3 and PCO4, that flank the region to be amplified, as previously described in detail by Chelstrom et al. Blood, 84, 20 (1994). […]

clinical HIV-1 isolates = assay: In vitro susceptibility of clinical HIV-1 isolates to zidovudine (IC50); assay type: cell-based
Text: as §1, with “αCD4. In 18 αCD4-PAP experiments, cell viability ranged from 97.5% (for cells not exposed to the immunoconjugate)to 87.2% (for cells exposed to 5 nM αCD4-PAP). Cell viabilities in 22 zidovudine susceptible assays ranged from 90.9% (cells not exposed to zidovudine) to 90.75% (cells exposed to […] zidovudine).” for “αCD4.”
The in vitro susceptibility of clinical HIV-1 isolates to the PAP, PAP mutants, and anti-CD4 PAP immunoconjugates will be measured and compared using an RT inhibition assay, as described by Schwartz et al., cited supra. In brief, 5×10^6 PHA-stimulated seronegative donor peripheral blood mononuclear cells will be infected with HIV-1 by incubation in 1 mL of a stock virus preparation for 3 h at 37° C./5% CO2. After infection, cells will be transferred to 96-well tissue culture plates (40 μL/well in triplicate wells) containing different concentrations of PAP or αCD4 PAP diluted in RPMI 1640 supplemented with 20% fetal calf serum, 5% interleukin 2 (Cellular Products), 160 U/mL penicillin, and 160 μg/mL streptomycin. αCD4 PAP treatment will continue for 5 days to mimic the FDA-approved clinical protocol of the ongoing phase II PAP immunoconjugate trials for treatment of B-lineage lymphoid malignancies (BB-IND #3864). At the end of the incubation period, culture supernatants will be removed and assayed for RT activity using the method of Schwartz and colleagues. Schwartz et al., cited supra. IC50 values (concentration of drug needed to reduce RT activity by 50%) will be calculated from the RT activities of untreated versus treated samples using the SAS Regression Analysis Program (SAS Institute, Cary, N.C.). ZDV resistance will be defined as an ZDV-IC50value of greater than 1 μM. Standard statistical methods will be used including Student's t-tests to compare the αCD4 PAP sensitivity of ZDV-resistant and ZDV-sensitive HIV-1 isolates. All computations will be performed using an updated statistics program for the Macintosh (Statworks Statistics Program, Cricket Software, Philadelphia, Pa.).

[2] = ZDV in the water at 1 mg/mL, of the remaining 7 of 10 mice

Q: What does the source list for Cc1cn([C@H]2C[C@H](N=[N+]=[N-])[C@@H](CO)O2)c(=O)[nH]c1=O [zidovudine, 3'-azido-3'-deoxythymidine]?
A: viability (in vitro): 90.8%; HIV-1 negative mice ([1]; ZDV in the water at 1 mg/mL (average 200 mg/kg/day), two weeks after infection, culture and PCR): 3 of 10; mice culture-negative but PCR-positive [1, 2]: 3; mice culture-positive and PCR positive [1, 2]: 4; IC50 (clinical HIV-1 isolates; Human immunodeficiency virus 1, one resistant isolate, IC50 could not be calculated): > 4000 nM; IC50 (clinical HIV-1 isolates; Human immunodeficiency virus 1, read-out: mean IC50, overall, 5 isolates resistant to zidovudine): 3720 nM; IC50 (clinical HIV-1 isolates; Human immunodeficiency virus 1, read-out: mean IC50, overall, 17 isolates susceptible to zidovudine): 117 nM; IC50 (clinical HIV-1 isolates; Human immunodeficiency virus 1, read-out: mean zidovudine IC50, AIDS-related complex, four zidovudine susceptible isolates): 106 nM; IC50 (clinical HIV-1 isolates; Human immunodeficiency virus 1, read-out: mean zidovudine IC50, isolates from seropositive asymptomatic, zidovudine-untreated patients): 150 nM; IC50 (clinical HIV-1 isolates; Human immunodeficiency virus 1, read-out: mean zidovudine IC50, patients with AIDS, five zidovudine susceptible strains): 105 nM; IC50 (clinical HIV-1 isolates; Human immunodeficiency virus 1, read-out: mean zidovudine IC50, strains from zidovudine-treated patients (7 isolates, 24 to 104 weeks of treatment)): 2500 nM; IC50 (clinical HIV-1 isolates; Human immunodeficiency virus 1, read-out: mean zidovudine IC50, strains from zidovudine-untreated individuals (15 isolates)): 126 nM; IC50 (clinical HIV-1 isolates; Human immunodeficiency virus 1, read-out: zidovudine IC50, one isolate from a seropositive asymptomatic individual after 48 weeks of zidovudine therapy): 14 nM; IC50 (clinical HIV-1 isolates; Human immunodeficiency virus 1, read-out: zidovudine IC50 range, AIDS-related complex, four zidovudine susceptible isolates): 24 to 150 nM; IC50 (clinical HIV-1 isolates; Human immunodeficiency virus 1, read-out: zidovudine IC50 range, isolates from seropositive asymptomatic, zidovudine-untreated patients): 1 to 607 nM; IC50 (clinical HIV-1 isolates; Human immunodeficiency virus 1, read-out: zidovudine IC50 range, patients with AIDS, five zidovudine susceptible strains): 44 to 166 nM; IC50 (clinical HIV-1 isolates; Human immunodeficiency virus 1, read-out: zidovudine IC50 range, strains from zidovudine-treated patients (7 isolates)): 14 to 6500 nM; IC50 (clinical HIV-1 isolates; Human immunodeficiency virus 1, read-out: zidovudine IC50 range, strains from zidovudine-untreated individuals (15 isolates)): 1 to 607 nM; IC50 (clinical HIV-1 isolates; Human immunodeficiency virus 1, read-out: zidovudine IC50s, AIDS-related complex, two resistant isolates obtained after 52 weeks of therapy): 1710 to 2140 nM; susceptibility to zidovudine (clinical HIV-1 isolates; patients with AIDS, three isolates after 24 to 104 weeks of zidovudine, alone or alternating with zalcitabine): highly resistant to zidovudine
